Measured values as given in publication PMC6449294, “SNAPshots of the MCHR1: a Comparison Between the PET-Tracers [^18F]FE@SNAP and [^11C]SNAP-7941” (Molecular Imaging and Biology, 2018).
“Also recorded” adds a separate entry of the source.

Experiments:
human MCHR1 = target: T1, human MCHR1 (Homo sapiens, UniProt Q99705); assay: Kinetic real-time cell-binding study (LigandTracer) on CHO-K1-hMCHR1 cells; format: cell-based; settings: for observed association rate constant (kobs): CHO-K1-hMCHR1 cells, ambient temperature, radiotracer 0.05–1000 nM, mean ± SEM; for accumulation on CHO-K1-hMCHR1 cells: real-time cell binding, result in words
T1 construct: host or cells: CHO-K1
T1 sequence (Q99705 whole entry): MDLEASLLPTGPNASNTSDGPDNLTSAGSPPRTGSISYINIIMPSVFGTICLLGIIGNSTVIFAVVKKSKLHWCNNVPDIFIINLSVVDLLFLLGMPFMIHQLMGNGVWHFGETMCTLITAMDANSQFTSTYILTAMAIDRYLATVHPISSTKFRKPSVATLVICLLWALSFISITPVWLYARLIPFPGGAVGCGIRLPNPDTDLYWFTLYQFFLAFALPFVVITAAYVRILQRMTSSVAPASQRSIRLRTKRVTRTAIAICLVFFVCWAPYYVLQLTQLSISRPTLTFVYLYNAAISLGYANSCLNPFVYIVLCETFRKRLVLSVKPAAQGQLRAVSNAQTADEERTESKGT
Method: Kinetic real-time cell-binding studies were performed on adherent Chinese hamster ovary (CHO-K1) cells (negative control) and CHO-K1 cells stably expressing the human MCHR1 or MCHR2 (PerkinElmer®; Waltham, MA, USA) with [^11C]SNAP-7941 and [^18F]FE@SNAP as previously reported. The cells were cultured in Ham’s F-12 medium (Gibco®, Life Technologies) with additives (1 % penicillin-streptomycin-glutamine (PSG), 10 % fetal bovine serum (FBS), and 300-μg/m Geneticin (G-418)) and incubated in a humidified 5 % CO2 atmosphere at 37 °C. For the preparation of the binding experiment, approximately 10^6 cells were seeded as a monolayer on the bottom of a tilted cell culture dish (100 mm × 20 mm, CELLSTAR®, Greiner Bio-One) and incubated with 2-ml medium for 24 h to avoid a spreading of the cells over the whole Petri dish. In the next step, the medium was discarded and the Petri dish was placed in a horizontal position with 10-ml medium for additional 24 h. Afterwards, the binding experiment was performed at ambient temperature with LigandTracer® Yellow (Ridgeview Instruments AB, Uppsala, Sweden) using 3-ml fresh medium (Ham’s F-12, serum-free). Unspecific radiotracer uptake was determined with native CHO-K1 cells. The experiments were initiated with baseline measurements for 10–15 min followed by radioligand incubation of [^11C]SNAP-7941 and [^18F]FE@SNAP. Binding to the seeded cells was ensured by adding different concentrations of the radiotracer (0.05–1000 nM). Association-time curves were monitored in real-time until the binding equilibrium was achieved. The observed rate constant of the association reaction (kobs) was determined using non-linear regression curve fitting algorithms implemented in GraphPad Prism 6.0 (GraphPad Software, Inc., San Diego, CA, USA), as previously reported. Cell survival was continuously examined using the perimeter trace (signal vs. dish position) of the LigandTracer® 1.0.1 software (Ridgeview Instruments AB, Uppsala, Sweden).

MCHR1 = target: T2, MCHR1 (Rattus norvegicus, UniProt P97639); assay: Ex vivo biodistribution, vehicle vs displacement with (±)-SNAP-7941; format: in vivo; settings: 15 mg/kg (±)-SNAP-7941
T2 construct: from tissue; host or cells: living Sprague-Dawley rats (PET) and their organs after sacrifice
T2 sequence (P97639 whole entry): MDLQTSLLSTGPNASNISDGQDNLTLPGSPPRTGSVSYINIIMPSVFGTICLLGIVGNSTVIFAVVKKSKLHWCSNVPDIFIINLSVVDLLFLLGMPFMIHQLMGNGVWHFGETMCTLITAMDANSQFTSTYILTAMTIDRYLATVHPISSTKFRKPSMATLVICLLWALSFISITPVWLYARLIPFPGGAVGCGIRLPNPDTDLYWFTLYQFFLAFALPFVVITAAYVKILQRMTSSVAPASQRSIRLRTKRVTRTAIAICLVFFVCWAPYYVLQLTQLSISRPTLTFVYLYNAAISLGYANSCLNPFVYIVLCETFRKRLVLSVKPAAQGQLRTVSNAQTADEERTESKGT
Text: After the imaging studies, the animals were sacrificed by decapitation; blood and tissues were removed and collected in tubes, weighed, and subjected to radioactivity measurements in a Gamma Counter (2480 WIZARD^2, PerkinElmer, Waltham, MA, USA). Values were normalized to the applied dose, the organ, and body weight and expressed as the standardized uptake value (SUV [g/ml]).

[1] = Ex vivo metabolites in rat whole blood (radio-HPLC); settings: for Metabolism in rat blood: ex vivo, result in words
Method: For the analysis of potential radiometabolites, blood samples (50–80 μl) from rats were withdrawn at 10 and 45 min for [^11C]SNAP-7941 and at 10, 30, and 60 min for [^18F]FE@SNAP and immediately subjected to the equivalent amount of acetonitrile, homogenized, and stored on ice before processing. Additionally, [^18F]FE@SNAP was administered to three rats, which were sacrificed after 45 min. Whole brains were harvested and homogenized with equivalent amounts (500–800 μl) of acetonitrile and 0.9 % saline solution using an ULTRA-TURRAX® (T25 basic, IKA Laboratory Equipment, Staufen, Germany). Subsequently, blood and brain were centrifuged (23,000 ×g, 4 min, 4 °C; Hettich Universal 30RF, Tuttlingen, Germany), and the obtained supernatant was analyzed by an analytical HPLC equipped with a radioactivity detector (radio-HPLC) (stationary phase: Chromolith® Performance RP-18e, 100–4.6 mm; precolumn: Chromolith® Guard Cartridge RP-18e, 5–4.6 mm; Merck, Darmstadt, Germany), mobile phase: (water/acetic acid 97.5/2.5 v/v; 2.5 g/l ammonium acetate; pH 3.5)/acetonitrile 70/30 v/v; flow: 1 ml/min, λ = 254 nm). The ratio between metabolite and intact radiotracer was calculated using quantitative HPLC analysis.

[2] = parameters: method as in earlier work; settings: previous studies; ref 30 and 34 (table), 32 and 36; cited from earlier work
[3] = 10 min after radiotracer application

| SMILES | observed association rate constant (kobs) (human MCHR1) [min⁻¹] | accumulation on CHO-K1-hMCHR1 cells (human MCHR1) | difference in colon uptake between vehicle and displacement groups (MCHR1) | difference in eye uptake between vehicle and displacement groups (MCHR1) | difference in pancreas uptake between vehicle and displacement groups (MCHR1) | overall biodistribution: uptake in target regions after displacement (MCHR1) | intact tracer in rat whole blood [1, 3] [%] | intact tracer in rat whole blood ([1]; 30 min after administration) [%] | intact tracer in rat whole blood ([1]; 60 min) [%] | Metabolism in rat blood [1] | Lipophilicity (logD) [2] | intact tracer in rat whole blood ([1]; 45 min) [%] |
| --- | --- | --- | --- | --- | --- | --- | --- | --- | --- | --- | --- | --- |
| COCC1=C(C(=O)OCC[18F])C(c2ccc(F)c(F)c2)N(C(=O)NCCCN2CCC(c3cccc(NC(C)=O)c3)CC2)C(=O)N1 (stereo not drawn) [[^18F]FE@SNAP] | 0.0859 ± 0.0028 | high accumulation | no statistically significant difference | significant differences | significant differences | decreased uptake | 38.40 ± 2.3 | 31.59 ± 4.0 | 14.42 ± 3.3 | Rapidly metabolized | 3.83 ± 0.1 |  |
| COCC1=C(C(=O)O[11CH3])C(c2ccc(F)c(F)c2)N(C(=O)NCCCN2CCC(c3cccc(NC(C)=O)c3)CC2)C(=O)N1 (stereo not drawn) [[^11C]SNAP-7941] | 0.0629 ± 0.0020 | high accumulation | Statistically significant differences | Statistically significant differences | Statistically significant differences | decreased uptake | 93.52 ± 0.1 |  |  | high metabolic stability; also recorded: Stable | 3.29 ± 0.01 | 93.74 ± 6.2 |
